Values quoted from earlier work, collected in patent EP3320903B1 (HK inno.N Corporation, priority 2015, dated 2017).

pKa: ~4.6
SMILES: CC(C)c1nc(N(C)S(C)(=O)=O)nc(-c2ccc(F)cc2)c1/C=C/[C@@H](O)C[C@@H](O)CC(=O)O [rosuvastatin, (3R,5S,6E)-7-[4-(4-fluorophenyl)-2-(N-methylmethanesulfonamido)-6-(propan-2-yl)pyrimidin-5-yl]-3,5-dihydroxyhepten-6-oic acid]
